Reference: patent US7727988B2, “Azabicyclo[3.1.0]hex-3-yl}alkyl)pyrimidinedione” (Glaxo Group Limited, priority 2006, dated 2010)

Biological target: T1, dopamine D3 receptor (Homo sapiens, UniProt P35462)
T1 construct: host or cells: Chinese Hamster Ovary (CHO) cells, membranes
Assay: GTPS scintillation proximity assay (GTPS-SPA), CHO_D3 membranes, antagonist format
Format: biochemical
Method: Functional potency of compounds of this invention can be measured by the following GTPS scintillation proximity assay (GTPS-SPA). Cells used in the study are Chinese Hamster Ovary (CHO) Cells. • Cell Line • CHO_D2 • CHO_D3 • Dopamine CHO D3 (Biocat no 1060) transduced with bacmam G0 G-protein (Biocat no 97886)
All steps are performed at 4° C. Cell membranes are prepared as follows. Cell pellets are resuspended in 10 volumes of 50 mM HEPES, 1 mM EDTA pH 7.4, using KOH. Cells are homogenised within a glass waring blender for 2 bursts of 15 secs in 200 mls of buffer (50 mM HEPES, 1 mM leupeptin, 25 μg/ml bacitracin, 1 mM EDTA, 1 mM PMSF, 2 μM Pepstatin A). (the latter 2 reagents added as fresh ×100 and ×500 stocks respectively in ethanol). The blender is plunged into ice for 5 mins after the first burst and 10-40 mins after the final burst to allow foam to dissipate. The material is then spun at 500 g for 20 mins and the supernatant spun for 36 mins at 48.000 g. The pellet is resuspended in the same buffer as above but without PMSF and Pepstatin A. The material is then forced through a 0.6 mm needle, made up to the required volume, (usually ×4 the volume of the original cell pellet), aliquoted and stored frozen at −80° C.
The final top concentration of test drug is 3 μM in the assay and 11 points serial dilution curves 1:4 in 100% DMSO are carried out using a Biomek FX. The test drug at 1% (0.5 ul) total assay volume (TAV) is added to a solid, white Greiner polypropylene 384-well assay plate. 50% TAV (25 μl) of precoupled (for 60 mins at RT) membranes, 5 μg/well, and Wheatgerm Agglutinin Polystyrene Scintillation Proximity Assay beads (RPNQ0260, Amersham), 0.25 mg/well, in 20 mM HEPES (pH 7.4, 100 mM NaCl, 10 mM MgCl2), 60 μg/mL saponin and 30 uM GDP is added. The third addition is a 20% TAV (10 ul) addition of either buffer, (agonist format) or EC80 final assay concentration of agonist, Quinelorane, prepared in assay buffer (antagonist format). The assay is started by the addition of 29% TAV (15 ul) of GTP[35S] 0.38 nM final (37 MBq/mL, 1160 Ci/mmol, Amersham). After all additions assay plates are spun down for 1 min at 1,000 rpm. The final assay cocktail ([…]) is incubated at room temperature to equilibrate for 3-6 hours before reading on a ViewLux™ (613/55 filter) luminescence imager 5 min/plate.
The effect of the test drug over the basal generates fpKi values of test drug are calculated from the IC50 generated by “antagonist format” experiment, using Cheng & Prusoff equation: fKi=IC50/1+([A]/EC50) where: [A] is the concentration of the agonist Quinelorane in the assay and EC50 is the Quinelorane EC50 value obtained in the same experiment. fpKi is defined as −logfKi. • pKi results are only estimated to be accurate to about 0.3-0.5.

T1 sequence (P35462 whole entry, species assumed): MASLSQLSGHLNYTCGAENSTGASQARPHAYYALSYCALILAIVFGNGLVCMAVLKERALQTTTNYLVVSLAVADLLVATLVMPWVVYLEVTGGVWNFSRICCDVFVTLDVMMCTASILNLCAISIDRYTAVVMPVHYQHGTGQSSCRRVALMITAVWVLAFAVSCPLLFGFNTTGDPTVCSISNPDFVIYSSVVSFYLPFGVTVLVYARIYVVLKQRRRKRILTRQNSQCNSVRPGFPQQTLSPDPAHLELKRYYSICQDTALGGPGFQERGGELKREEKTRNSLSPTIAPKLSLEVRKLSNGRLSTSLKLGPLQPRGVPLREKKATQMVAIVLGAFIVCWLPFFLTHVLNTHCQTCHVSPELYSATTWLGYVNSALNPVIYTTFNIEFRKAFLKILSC

Cc1ccsc1-c1cn(CCCCN2C[C@@H]3C[C@]3(c3ccc(C(F)(F)F)cc3)C2)c(=O)[nH]c1=O.Cl [Example E16, 5-(3-methyl-2-thienyl)-1-(4-{(1S,5R)-1-[4-(trifluoromethyl)phenyl]-3-azabicyclo[3.1.0]hex-3-yl}butyl)-2,4(1H,3H)-pyrimidinedione hydrochloride]
Selectivity for D3 over D2 receptors: 100 fold
